This test addresses T1, human GR (Homo sapiens, UniProt P04150).
T1 construct: naturally expresses the human GR; endogenous in cells
T1 sequence (P04150 1-777): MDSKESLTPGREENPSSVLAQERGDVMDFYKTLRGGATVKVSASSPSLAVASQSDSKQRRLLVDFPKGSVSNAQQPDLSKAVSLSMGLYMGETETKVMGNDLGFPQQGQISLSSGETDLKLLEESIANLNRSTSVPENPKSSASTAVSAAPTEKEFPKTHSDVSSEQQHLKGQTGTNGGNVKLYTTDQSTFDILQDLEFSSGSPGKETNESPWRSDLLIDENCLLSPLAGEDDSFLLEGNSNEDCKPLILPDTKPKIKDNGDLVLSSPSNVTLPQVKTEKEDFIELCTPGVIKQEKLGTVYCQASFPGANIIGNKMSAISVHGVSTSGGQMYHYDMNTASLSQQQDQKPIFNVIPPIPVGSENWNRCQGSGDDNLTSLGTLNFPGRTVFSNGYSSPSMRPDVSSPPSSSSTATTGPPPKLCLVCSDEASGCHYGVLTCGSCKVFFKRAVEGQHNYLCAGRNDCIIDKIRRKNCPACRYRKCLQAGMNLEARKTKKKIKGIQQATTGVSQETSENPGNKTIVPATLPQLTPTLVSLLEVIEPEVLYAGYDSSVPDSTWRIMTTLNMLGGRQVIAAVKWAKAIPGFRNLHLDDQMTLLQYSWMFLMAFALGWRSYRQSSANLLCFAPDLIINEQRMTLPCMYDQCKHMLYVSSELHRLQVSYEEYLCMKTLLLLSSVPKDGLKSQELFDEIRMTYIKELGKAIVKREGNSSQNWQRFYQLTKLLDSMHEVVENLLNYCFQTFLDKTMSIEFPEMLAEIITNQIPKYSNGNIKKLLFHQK
As to the kind of experiment: Trans-activation modulation of glucocorticoid receptor (GRAMMER), MMTV-LUC reporter in A549 cells. The test is classed as cell-based. The settings on record: for Emax: A549, A549 cells, read-out: Transactivation A549 Cells Grammer Emax (%); for EC50: IP = inflection point, read-out: Transactivation A549 Cells Grammer IP.

[1] abbreviates: Emax relative to the activity obtained with 300 nM dexamethasone.

In the case of `CC[C@]12Cc3cnn(-c4ccc(F)cc4)c3C=C1CC[C@@]2(O)CCc1nccc(C2CC2)c1C(=O)OC` [Example 41, Methyl 4-cyclopropyl-2-{2-[(4aS,5R)-4a-ethyl-1-(4-fluorophenyl)-5-hydroxy-1,4,4a,5,6,7-hexahydrocyclopenta[f]indazol-5-yl]ethyl}pyridine-3-carboxylate], the Emax under setting [1] was 28%. In addition, for the setting “A549 cells”, the EC50 amounted to 138 nM.
The corresponding values for `CC[C@]12Cc3cnn(-c4ccccc4)c3C=C1CC[C@@]2(O)CCc1ccccc1C(N)=O` [Example 20, 2-{2-[(4aS,5R)-4a-Ethyl-5-hydroxy-1-phenyl-1,4,4a,5,6,7-hexahydrocyclopenta[f]indazol-5-yl]ethyl}benzamide] are 51% and 45 nM.
The corresponding values for `CC[C@]12Cc3cnn(-c4ccc(F)cc4)c3C=C1CC[C@@]2(O)CC(O)c1ncccc1F` (stereo partly drawn) [Example 76, (4aS,5R)-4a-Ethyl-1-(4-fluorophenyl)-5-[2-(3-fluoropyridin-2-yl)-2-hydroxyethyl]-1,4,4a,5,6,7-hexahydrocyclopenta[f]indazol-5-ol] are 31% and 142 nM.
The corresponding values for `N#Cc1ccccc1CC[C@]1(O)CCC2=Cc3c(cnn3-c3cccnc3)C[C@@]21C1CC1` [Example 30, 2-{2-[(4aR,5R)-4a-Cyclopropyl-5-hydroxy-1-(pyridin-3-yl)-1,4,4a,5,6,7-hexahydrocyclopenta[f]indazol-5-yl]ethyl}benzonitrile] are 4% and 126 nM.
As for `CC[C@]12Cc3cnn(-c4ccc(F)cc4)c3C=C1CC[C@@]2(O)CCc1ccccc1S(=O)(=O)CC` [Example 51, (4aS,5R)-4a-Ethyl-5-{2-[2-(ethylsulfonyl)phenyl]ethyl}-1-(4-fluorophenyl)-1,4,4a,5,6,7-hexahydrocyclopenta[f]indazol-5-ol], under setting [1], the maximal effect (Emax) was 28%. Moreover, under “A549 cells”, the EC50 turned out to be 92 nM.
Taken in the same sequence, the figures for `CC[C@]12Cc3cnn(-c4ccc(F)cc4)c3C=C1CC[C@@]2(O)CCc1ncc(F)cc1C(N)=O` [Example 53, 2-{2-[(4aS,5R)-4a-Ethyl-1-(4-fluorophenyl)-5-hydroxy-1,4,4a,5,6,7-hexahydrocyclopenta[f]indazol-5-yl]ethyl}-5-fluoropyridine-3-carboxamide] were 49% and 77 nM.
Taken in the same sequence, the figures for `NC(=O)c1cc(F)ccc1CC[C@]1(O)CCC2=Cc3c(cnn3-c3ccc(F)cc3)C[C@@]21C1CC1` [Example 39, 2-{2-[(4aR,5R)-4a-Cyclopropyl-1-(4-fluorophenyl)-5-hydroxy-1,4,4a,5,6,7-hexahydrocyclopenta[f]indazol-5-yl]ethyl}-5-fluorobenzamide] were 14% and 116 nM.
Taken in the same sequence, the figures for `CC[C@]12Cc3cnn(-c4ccc(F)cc4)c3C=C1CC[C@@]2(O)CC(O)c1ncccc1Cl` (stereo partly drawn) [Example 70, (4aS,5R)-5-[2-(3-Chloropyridin-2-yl)-2-hydroxyethyl]-4a-ethyl-1-(4-fluorophenyl)-1,4,4a,5,6,7-hexahydrocyclopenta[f]indazol-5-ol] were 31% and 83 nM.
As for `CC[C@]12Cc3cnn(-c4cccc(F)c4)c3C=C1CC[C@@]2(O)CCc1cccc(F)c1C(N)=O` [Example 12, 2-{2-[(4aS,5R)-4a-Ethyl-1-(3-fluorophenyl)-5-hydroxy-1,4,4a,5,6,7-hexahydrocyclopenta[f]indazol-5-yl]ethyl}-6-fluorobenzamide], the maximal response (Emax) under setting [1] was determined as 58%. The EC50 (A549 cells) came out at 23 nM.
The corresponding values for `NC(=O)Cc1c(F)cccc1CC[C@]1(O)CCC2=Cc3c(cnn3-c3ccc(F)cc3)C[C@@]21C1CC1` [Example 61, 2-(2-{2-[(4aR,5R)-4a-Cyclopropyl-1-(4-fluorophenyl)-5-hydroxy-1,4,4a,5,6,7-hexahydrocyclopenta[f]indazol-5-yl]ethyl}-6-fluorophenyl)acetamide] are 13% and 21 nM.
Taken in the same sequence, the figures for `CC[C@]12Cc3cnn(-c4cccnc4)c3C=C1CC[C@@]2(O)CCc1ccccc1C#N` [Example 5, 2-{2-[(4aS,5R)-4a-Ethyl-5-hydroxy-1-(pyridin-3-yl)-1,4,4a,5,6,7-hexahydrocyclopenta[f]indazol-5-yl]ethyl}benzonitrile] were 29% and 47 nM.
Taken in the same sequence, the figures for `NC(=O)Cc1ccccc1CC[C@]1(O)CCC2=Cc3c(cnn3-c3ccc(F)cc3)C[C@@]21C1CC1` [Example 56, 2-(2-{2-[(4aR,5S)-4a-Cyclopropyl-1-(4-fluorophenyl)-5-hydroxy-1,4,4a,5,6,7-hexahydrocyclopenta[f]indazol-5-yl]ethyl}phenyl)acetamide] were 9% and 14 nM.
`CC[C@]12Cc3cnn(-c4ccc(F)cc4)c3C=C1CC[C@@]2(O)CCc1ccccc1S(C)(=O)=O` [Example 42, (4aS,5R)-4a-Ethyl-1-(4-fluorophenyl)-5-{2-[2-(methylsulfonyl)phenyl]ethyl}-1,4,4a,5,6,7-hexahydrocyclopenta[f]indazol-5-ol]: the maximal effect (Emax) under setting [1] turned out to be 34%. The EC50 (A549 cells) was found to be 16 nM.
On to `CC[C@]12Cc3cnn(-c4ccc(F)cc4)c3C=C1CC[C@@]2(O)CCc1ccc(F)cc1C(N)=O` [Example 8, 2-{2-[(4aS,5R)-4a-Ethyl-1-(4-fluorophenyl)-5-hydroxy-1,4,4a,5,6,7-hexahydrocyclopenta[f]indazol-5-yl]ethyl}-5-fluorobenzamide], for which, under setting [1], the maximal response (Emax) worked out at 47%. For the same molecule, the EC50 (A549 cells) was 106 nM.
With `NC(=O)CNC(=O)c1ccccc1CC[C@]1(O)CCC2=Cc3c(cnn3-c3ccc(F)cc3)C[C@@]21C1CC1` [Example 47, N-(2-Amino-2-oxoethyl)-2-{2-[(4aR,5R)-4a-cyclopropyl-1-(4-fluorophenyl)-5-hydroxy-1,4,4a,5,6,7-hexahydrocyclopenta[f]indazol-5-yl]ethyl}benzamide], under setting [1], the Emax turned out to be 46%. The EC50 (A549 cells) was 17 nM.
As for `CC[C@]12Cc3cnn(-c4ccc(F)cc4)c3C=C1CC[C@@]2(O)CCc1ccccc1C(O)C(N)=O` (stereo partly drawn) [Example 25, 2-(2-{2-[(4aS,5R)-4a-Ethyl-1-(4-fluorophenyl)-5-hydroxy-1,4,4a,5,6,7-hexahydrocyclopenta[f]indazol-5-yl]ethyl}phenyl)-2-hydroxyacetamide], the “Transactivation A549 Cells Grammer Emax (%)” value (A549 cells, Emax relative to the activity obtained with 300 nM dexamethasone) was found to be 22%. Also, the EC50 (A549 cells) stood at 195 nM.
On to `NC(=O)[C@H](F)c1c(F)cccc1CC[C@]1(O)CCC2=Cc3c(cnn3-c3ccc(F)cc3)C[C@@]21C1CC1` [Example 57, (2R)-2-(2-{2-[(4aR,5R)-4a-Cyclopropyl-1-(4-fluorophenyl)-5-hydroxy-1,4,4a,5,6,7-hexahydrocyclopenta[f]indazol-5-yl]ethyl}-6-fluorophenyl)-2-fluoroethanamide], for which the Emax under setting [1] was found to be 11%. For the same molecule, for the setting “A549 cells”, the EC50 amounted to 31 nM.
In the case of `CC[C@]12Cc3cnn(-c4ccc(F)cc4)c3C=C1CC[C@@]2(O)CCc1cc(C(F)(F)F)ccn1` [Example 34, (4aS,5R)-4a-Ethyl-1-(4-fluorophenyl)-5-{2-[4-(trifluoromethyl)pyridin-2-yl]ethyl}-1,4,4a,5,6,7-hexahydrocyclopenta[f]indazol-5-ol], the maximal response (Emax) under setting [1] was 24%. For the same molecule, where the note is “A549 cells”, the EC50 stood at 91 nM.
The corresponding values for `NC(=O)c1c(C(F)(F)F)ccnc1CC[C@]1(O)CCC2=Cc3c(cnn3-c3ccc(F)cc3)C[C@@]21C1CC1` [Example 55, 2-{2-[(4aR,5R)-4a-Cyclopropyl-1-(4-fluorophenyl)-5-hydroxy-1,4,4a,5,6,7-hexahydrocyclopenta[f]indaozol-5-yl]ethyl}-4-(trifluoromethyl)pyridine-3-carboxamide] are 38% and 7 nM.
The corresponding values for `CC[C@]12Cc3cnn(-c4ccc(F)cc4)c3C=C1CC[C@@]2(O)CCc1ncccc1C(N)=O` [Example 52, 2-{2-[(4aS,5R)-4a-Ethyl-1-(4-fluorophenyl)-5-hydroxy-1,4,4a,5,6,7-hexahydrocyclopenta[f]indazol-5-yl]ethyl}pyridine-3-carboxamide] are 59% and 64 nM.
Turning to `CC[C@]12Cc3cnn(-c4ccc(F)cc4)c3C=C1CC[C@@]2(O)CCc1nccc(OC)c1CC(N)=O` [Example 64, 2-(2-{2-[(4aS,5R)-4a-Ethyl-1-(4-fluorophenyl)-5-hydroxy-1,4,4a,5,6,7-hexahydrocyclopenta[f]indazol-5-yl]ethyl}-4-methoxypyridin-3-yl)acetamide], under setting [1], the maximum response (Emax) was determined as 37%. For the same molecule, the EC50 (A549 cells) came out at 142 nM.
With `CC[C@]12Cc3cnn(-c4ccc(F)cc4)c3C=C1CC[C@@]2(O)CCc1ccccc1S(=O)(=O)C(C)C` [Example 40, (4aS,5R)-4a-Ethyl-1-(4-fluorophenyl)-5-{2-[2-(propan-2-ylsulfonyl)phenyl]ethyl}-1,4,4a,5,6,7-hexahydrocyclopenta[f]indazol-5-ol], the Emax under setting [1] stood at 36%. Further, under “A549 cells”, the EC50 came to 101 nM.

Values taken from US20120214847A1, “2-[1-PHENYL-5-HYDROXY-4a-SUBSTITUTED-HEXAHYDROCYCLOPENTA[F]INDAZOL-5-YL]ETHYL PHENYL DERIVATIVES AS GLUCOCORTICOID RECEPTOR LIGANDS” (Merck Sharp & Dohme Corp., priority 2009, published 2012).
